From PubChem BioAssay AID1963871 (Molecular Pharmacology Branch, DTP, NCI, 2024)

System: KRAS-mutant PDC multicell tumor spheroid viability
Test: Anticancer human tumor 521955-158-R2-J5-PDC patient-derived pancreatic carcinoma cell line growth inhibition [KRAS2]
Conditions: for IC50: curve of first compound; for viability, T/C: stronger effect = lower value
How it was run: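 KRAS-mutant tumor cells were grown as spheroids with HUVEC endothelial cells and human MSCs as stroma. Targeted agents were tested alone and with KRAS pathway inhibitors. Doses started at or near clinical Cmax, or 10 microM, descending half-log.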

[1] = second compound 0.1 µM, first compound 0.0316 µM
[2] = second compound 0.1 µM, first compound 0.1 µM
[3] = second compound 0.1 µM, first compound 0.316 µM
[4] = second compound 0.1 µM, first compound 1 µM
[5] = second compound 0.1 µM, first compound 3.16 µM
[6] = second compound 0.316 µM, first compound 0.0316 µM
[7] = second compound 0.316 µM, first compound 0.1 µM
[8] = second compound 0.316 µM, first compound 0.316 µM
[9] = second compound 0.316 µM, first compound 1 µM
[10] = second compound 0.316 µM, first compound 3.16 µM
[11] = second compound 1 µM, first compound 0.0316 µM
[12] = second compound 1 µM, first compound 0.1 µM
[13] = second compound 1 µM, first compound 0.316 µM
[14] = second compound 1 µM, first compound 1 µM
[15] = second compound 1 µM, first compound 3.16 µM
[16] = second compound 3.16 µM, first compound 0.0316 µM
[17] = second compound 3.16 µM, first compound 0.1 µM
[18] = second compound 3.16 µM, first compound 0.316 µM
[19] = second compound 3.16 µM, first compound 1 µM
[20] = second compound 3.16 µM, first compound 3.16 µM
[21] = second compound 10 µM, first compound 0.0316 µM
[22] = second compound 10 µM, first compound 0.1 µM
[23] = second compound 10 µM, first compound 0.316 µM
[24] = second compound 10 µM, first compound 1 µM
[25] = second compound 10 µM, first compound 3.16 µM
[26] = second compound 0.1 µM, first compound 10 µM
[27] = second compound 0.316 µM, first compound 10 µM
[28] = second compound 1 µM, first compound 10 µM
[29] = second compound 3.16 µM, first compound 10 µM
[30] = second compound 10 µM, first compound 10 µM
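Further: viability read after seven days of drug exposure.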

Which results are given for `CC1COCCN1c1cc(-c2ccnn2C)c2ccnc(-c3ccn[nH]3)c2n1` (stereo not given) + COc1cc2nc(C)nc(NC(C)c3cc(N)cc(C(F)(F)F)c3)c2cc1OC1CCOC1?
IC50 (second compound 0.1 µM): 21.4 nM; IC50 (second compound 0.316 µM): 21.7 nM; IC50 (second compound 1 µM): 21.4 nM; IC50 (second compound 3.16 µM): 23 nM; IC50 (second compound 10 µM): < 10 nM; viability, T/C (second compound 0.1 µM, first compound 0.01 µM): 85.3%; viability, T/C [1]: 31.8%; viability, T/C [2]: 9.64%; viability, T/C [3]: 12.1%; viability, T/C [4]: 16.3%; viability, T/C [5]: 20.9%; viability, T/C (second compound 0.316 µM, first compound 0.01 µM): 85%; viability, T/C [6]: 33%; viability, T/C [7]: 8.19%; viability, T/C [8]: 10.6%; viability, T/C [9]: 15.9%; viability, T/C [10]: 22.8%; viability, T/C (second compound 1 µM, first compound 0.01 µM): 93.4%; viability, T/C [11]: 27.7%; viability, T/C [12]: 10.1%; viability, T/C [13]: 11.7%; viability, T/C [14]: 15.6%; viability, T/C [15]: 21.9%; viability, T/C (second compound 3.16 µM, first compound 0.01 µM): 97.4%; viability, T/C [16]: 31.6%; viability, T/C [17]: 7.75%; viability, T/C [18]: 10.1%; viability, T/C [19]: 16.6%; viability, T/C [20]: 23.1%; viability, T/C (second compound 10 µM, first compound 0.01 µM): 39.6%; viability, T/C [21]: 9.76%; viability, T/C [22]: 4.43%; viability, T/C [23]: 7.6%; viability, T/C [24]: 16%; viability, T/C [25]: 12.9%

How did the IC50 (second compound 0.1 µM) turn out when `CC1OCC2(CCN(c3cnc(Sc4ccnc(N)c4Cl)c(N)n3)CC2)C1N` (stereo not given) + COc1cc2nc(C)nc(NC(C)c3cc(N)cc(C(F)(F)F)c3)c2cc1OC1CCOC1 was run?
The IC50 was > 10000 nM.

And the IC50 (second compound 0.316 µM)?
The IC50 was > 10000 nM.

And the IC50 (second compound 1 µM)?
The IC50 was > 10000 nM.

What about the IC50 (second compound 3.16 µM) of the same compound?
The IC50 was > 10000 nM.

And the IC50 (second compound 10 µM)?
Its IC50 is 4270 nM.

And the viability, T/C [1]?
The viability, T/C was 87.6%.

What about the viability, T/C [2] of the same compound?
The viability, T/C was 83.6%.

What about the viability, T/C [3] of the same compound?
The viability, T/C was 77.6%.

What about the viability, T/C [4] of the same compound?
Its viability, T/C is 75.9%.

And the viability, T/C [5]?
The viability, T/C was 72.5%.

What about the viability, T/C [26] of the same compound?
Its viability, T/C is 56.6%.

And the viability, T/C [6]?
Its viability, T/C is 82.3%.

And the viability, T/C [7]?
Its viability, T/C is 97.1%.

What about the viability, T/C [8] of the same compound?
The viability, T/C was 85.9%.

And the viability, T/C [9]?
The viability, T/C was 71.9%.

And the viability, T/C [10]?
The viability, T/C was 64.2%.

What about the viability, T/C [27] of the same compound?
Its viability, T/C is 55.4%.

And the viability, T/C [11]?
Its viability, T/C is 105%.

What about the viability, T/C [12] of the same compound?
The viability, T/C was 92.1%.

And the viability, T/C [13]?
The viability, T/C was 82.4%.

What about the viability, T/C [14] of the same compound?
The viability, T/C was 74.4%.

And the viability, T/C [15]?
The viability, T/C was 72.1%.

What about the viability, T/C [28] of the same compound?
Its viability, T/C is 62.5%.

What about the viability, T/C [16] of the same compound?
Its viability, T/C is 111%.

And the viability, T/C [17]?
Its viability, T/C is 102%.

And the viability, T/C [18]?
The viability, T/C was 88%.

And the viability, T/C [19]?
Its viability, T/C is 83.8%.

And the viability, T/C [20]?
The viability, T/C was 80.3%.

What about the viability, T/C [29] of the same compound?
Its viability, T/C is 84.6%.

What about the viability, T/C [21] of the same compound?
Its viability, T/C is 90.4%.

And the viability, T/C [22]?
The viability, T/C was 84.7%.

And the viability, T/C [23]?
Its viability, T/C is 76.9%.

What about the viability, T/C [24] of the same compound?
The viability, T/C was 65.9%.

What about the viability, T/C [25] of the same compound?
Its viability, T/C is 58.5%.

And the viability, T/C [30]?
Its viability, T/C is 35%.

Which IC50 (second compound 0.1 µM) does the source give for `CCNC(=O)CC1N=C(c2ccc(Cl)cc2)c2cc(OC)ccc2-n2c(C)nnc21` (stereo not given) + COc1cc2nc(C)nc(NC(C)c3cc(N)cc(C(F)(F)F)c3)c2cc1OC1CCOC1 here?
Its IC50 is 405 nM.

What about the IC50 (second compound 0.316 µM) of the same compound?
The IC50 was 293 nM.

And the IC50 (second compound 1 µM)?
Its IC50 is 333 nM.

And the IC50 (second compound 3.16 µM)?
Its IC50 is 320 nM.

What about the IC50 (second compound 10 µM) of the same compound?
The IC50 was 418 nM.

What about the viability, T/C [1] of the same compound?
The viability, T/C was 90%.

What about the viability, T/C [2] of the same compound?
Its viability, T/C is 79.5%.

And the viability, T/C [3]?
The viability, T/C was 52.6%.

What about the viability, T/C [4] of the same compound?
The viability, T/C was 36.7%.

And the viability, T/C [5]?
The viability, T/C was 32.4%.

And the viability, T/C [26]?
The viability, T/C was 26.9%.

What about the viability, T/C [6] of the same compound?
The viability, T/C was 104%.

And the viability, T/C [7]?
The viability, T/C was 89.9%.

And the viability, T/C [8]?
The viability, T/C was 47%.

What about the viability, T/C [9] of the same compound?
The viability, T/C was 30.8%.

And the viability, T/C [10]?
The viability, T/C was 30%.

What about the viability, T/C [27] of the same compound?
The viability, T/C was 26.6%.

What about the viability, T/C [11] of the same compound?
The viability, T/C was 89.2%.

What about the viability, T/C [12] of the same compound?
Its viability, T/C is 85.2%.

What about the viability, T/C [13] of the same compound?
Its viability, T/C is 50.1%.

What about the viability, T/C [14] of the same compound?
Its viability, T/C is 34.2%.

What about the viability, T/C [15] of the same compound?
The viability, T/C was 28.2%.

What about the viability, T/C [28] of the same compound?
Its viability, T/C is 28%.

And the viability, T/C [16]?
The viability, T/C was 98.5%.

And the viability, T/C [17]?
Its viability, T/C is 87.7%.

What about the viability, T/C [18] of the same compound?
The viability, T/C was 48.4%.

And the viability, T/C [19]?
Its viability, T/C is 39.6%.

And the viability, T/C [20]?
The viability, T/C was 28%.

And the viability, T/C [29]?
The viability, T/C was 30.8%.

And the viability, T/C [21]?
Its viability, T/C is 105%.

And the viability, T/C [22]?
Its viability, T/C is 96.5%.

And the viability, T/C [23]?
Its viability, T/C is 49.9%.

And the viability, T/C [24]?
Its viability, T/C is 33.4%.

What about the viability, T/C [25] of the same compound?
Its viability, T/C is 18.6%.

What about the viability, T/C [30] of the same compound?
Its viability, T/C is 8.29%.

What does the source list for `Cn1nccc1Nc1nccc(-c2cc3c(s2)C(C)(C)N(CCN2CCOCC2)C3=O)n1` + COc1cc2nc(C)nc(NC(C)c3cc(N)cc(C(F)(F)F)c3)c2cc1OC1CCOC1?
IC50 (second compound 0.1 µM): 355 nM; IC50 (second compound 0.316 µM): 522 nM; IC50 (second compound 1 µM): 574 nM; IC50 (second compound 3.16 µM): 510 nM; IC50 (second compound 10 µM): 104 nM; viability, T/C [1]: 92.5%; viability, T/C [2]: 77.9%; viability, T/C [3]: 47.1%; viability, T/C [4]: 36.8%; viability, T/C [5]: 24.6%; viability, T/C [26]: 17.6%; viability, T/C [6]: 104%; viability, T/C [7]: 83.7%; viability, T/C [8]: 57.2%; viability, T/C [9]: 40%; viability, T/C [10]: 23.8%; viability, T/C [27]: 16.6%; viability, T/C [11]: 83.2%; viability, T/C [12]: 87.6%; viability, T/C [13]: 62%; viability, T/C [14]: 37%; viability, T/C [15]: 21.2%; viability, T/C [28]: 13.9%; viability, T/C [16]: 86%; viability, T/C [17]: 75.3%; viability, T/C [18]: 60.8%; viability, T/C [19]: 36.1%; viability, T/C [20]: 17.4%; viability, T/C [29]: 8.1%; viability, T/C [21]: 76.8%; viability, T/C [22]: 51%; viability, T/C [23]: 16.8%; viability, T/C [24]: 4.05%; viability, T/C [25]: 1.96%; viability, T/C [30]: 0.81%
